Source: a melting point compilation (Tetko et al.; mined from patent text by program, amines drawn as free bases though some values may be those of a salt)

Row | melting point [°C] | SMILES
1 | 211 to 214 | CC(C)Nc1n[nH]c2nc(Oc3ccc(F)cc3F)ncc12
2 | 153 to 154 | CCCOc1nsc(NC(=O)C(C)C)c1C(N)=O
3 | 29 to 31 | CC(C)(C)N=NC(C)(C)SC#N
4 | 123 to 124 | CCC(COC)n1cnc2c(Nc3ccc(C(F)(F)F)cc3Br)nc(C)nc21 (stereo unspecified)
5 | 175 | O=c1[nH]c2cc(Cl)c(Cl)cc2n1CCCO
6 | 266 | CCn1c(N)c(C(=O)NC)c(=O)c2ccc(-c3ccc(CC(=O)Nc4ccccn4)nc3)nc21
7 | 131 to 132 | COc1cc(C(F)(F)F)sc1C(=O)O
8 | 118 to 120 | CC1(c2ccc(F)cc2)CN(Cc2ccc(COc3cccc4c3CN(C3CCC(=O)NC3=O)C4=O)cc2)CCO1 (stereo unspecified)
9 | 124 to 126 | Cc1cc2c(nc(C)n2CCc2ccccc2)c(N(Cc2ccccc2)Cc2ccccc2)n1
10 | 123 to 124 | CC1(C)CC(=O)c2c(nc(Cc3ccc(N)cc3)c3[nH]c4ccccc4c23)C1
11 | 256 | Cc1cc(-c2cnn3c(C(F)(F)F)cc(-c4ccc(Cl)cc4)nc23)cc(C)n1
12 | 208 to 211 | CC1(C)C(=O)Nc2cc3oc(Cc4ccncc4)nc3cc21
13 | 210 | Cc1c(C(=O)c2ccc(Cl)c(S(N)(=O)=O)c2)sc2ccccc12
14 | 185 to 187 | C=C1C(O)C(CO)OC1n1cc(F)c(N)nc1=O (stereo unspecified)
15 | 174 to 175 | N#CCOc1cc(Cl)c2c(=O)c(-c3ccccc3Cl)coc2c1
16 | > 270 | CCn1c(=O)c2[nH]c(/C=C/c3cccc(Br)c3)nc2n(CC)c1=O
17 | 140 to 143 | CNCC1Cc2cc(-c3ccccc3)cc(-c3ccccc3OC)c2O1 (stereo unspecified)
18 | 200 to 202 | COc1ccc(C=C2N=C(c3ccccc3I)OC2=O)cc1OC
19 | 166 to 168 | Cc1ccnc(-n2cc(C#N)ccc2=O)c1
20 | 166 to 167 | Cc1nnc(-c2ccc3occ(-c4ccncc4)c3c2)o1
21 | 144 | COC(=O)c1ccc(OCCCC#N)c(Cl)c1
22 | > 250 | CS(=O)(=O)Nc1cc2occc(=O)c2cc1O
23 | 184 to 186 | CCCCNN1C=c2cc(-c3c(Cl)cccc3Cl)c(=O)n(C)c2=NC1
24 | 230 to 232 | Cc1nc(-c2ccc([N+](=O)[O-])cc2)c(-c2ccc([N+](=O)[O-])cc2)[nH]1
25 | 134 to 135 | CC(=O)c1ccc2c(c1)-c1ccccc1-2

Row | melting point [°C] | SMILES
26 | 152 | CNc1cc(OCC(O)CN2C(=O)CCC2=O)ccc1[N+](=O)[O-] (stereo unspecified)
27 | 205 to 208 | CC12CC(O)C3c4ccccc4C(=O)CC3C1CCC2O (stereo unspecified)
28 | 85 to 86 | CCc1scc(C(=O)OC)c1NC(C)=O
29 | 153 to 156 | CCCNc1nc(C#N)c(C#N)nc1SCc1ccccc1
30 | 83.5 to 84 | CN(C)C=CC(=O)c1ccc(F)cc1
31 | 123 to 126 | CC(=O)C=C(c1ccc(C#N)cc1)n1ccnc1
32 | 207 to 208 | FC(F)(F)c1ccc(-c2ccnc(Nc3cnc4ccccc4c3)c2)cc1
33 | 93 to 95 | O=C(Cc1ccc(F)cc1F)c1ccc(Cl)nc1
34 | 112 | Cc1c(Cl)cccc1S(=O)O
35 | 266 to 267 | COc1ccc(Nc2cc3c(cc2Nc2ccccc2)C(=O)NC3=O)cc1
36 | 224 to 227 | COc1ncc(-c2nn(C(C)c3oc4ccccc4c(=O)c3-c3cccc(F)c3)c3ncnc(N)c23)cn1 (stereo unspecified)
37 | 211 to 213 | COc1cc2cc(C(N)=O)sc2cc1OC
38 | 195 to 197 | O=C(Nc1ccccc1F)Nc1cc(Cl)ccc1C(=O)O
39 | 55 to 58 | O=C(O)CNC(=O)C(S)Cc1ccccc1 (stereo unspecified)
40 | 263 to 264 | CCn1nc(-c2ccccc2)c(C(C)=O)c(Nc2cccc3cn[nH]c23)c1=O
41 | 208 to 210 | CCCN1C(=O)c2cccnc2NS1(=O)=O
42 | 172 to 173 | COC(=O)c1ccc(-c2nnc(-c3ccccc3)o2)cc1
43 | 238 to 240 | O=C1Nc2ccccc2C12CCCC2Br (stereo unspecified)
44 | 230 to 234 | CCCc1nc2cc(Cl)c(S(N)(=O)=O)cc2[nH]1
45 | 273 to 274 | Cc1c(C(=O)O)cnn1-c1nc(-c2ccc3ccccc3c2)cs1
46 | 103 to 104 | N[C@@H](CCC(=O)O)C(=O)N[C@@H](Cc1ccccc1)C(=O)OCc1ccccc1
47 | > 300 | COC(=O)c1ccc(-c2cc3c(Nc4cccc(Cl)c4)ncnc3[nH]2)cc1
48 | 159 | Cc1ccc2c(c1)[nH]c(=O)n2CCO
49 | 156 | Cc1cccc(-c2nc3ccccn3c2-c2ccnc(-c3ccc(CN4CCOCC4)cc3)c2)n1
50 | 260 to 261 | CNc1nc(C)c(C(=O)c2ccc(N)c([N+](=O)[O-])c2)s1

Row | melting point [°C] | SMILES
51 | 122 to 125 | COC(=O)c1c(C)cc(O)c(Cl)c1O
52 | 133 to 135 | Cc1c(SCCCSCCn2c([N+](=O)[O-])cnc2C)ccnc1CNc1cnc2ccccc2c1
53 | 110 to 111 | C=C1N(CCCC)C(=O)OC12CCN(CCC=C(c1ccc(Cl)cc1)c1ccc(Cl)cc1)CC2
54 | 112 to 114 | CC(=O)c1ccc2c(c1)C(Cl)Cc1ccc(F)cc1S2 (stereo unspecified)
55 | 190 to 191 | CCCn1nc(-c2c(-c3ccc(F)cc3)nn3ccc(OC)cc23)ccc1=O
56 | 164 to 165 | O=C1Nc2ccccc2C12CCCCC2
57 | 105 to 107 | CCOC(=O)CCCCOc1ccc(OC)c(OC)c1C=O
58 | 101 to 104 | O=C1OC(CCI)C(O)=C1OCc1ccccc1 (stereo unspecified)
59 | 114 to 116 | COCCOc1cc(/C=C/C(=O)NS(=O)(=O)CCC(C)C)n(Cc2ccc(C(F)(F)F)cc2Cl)n1
60 | 84 to 85 | Cc1cnc(C)c(Oc2ccc(OCn3cnc(Cl)c3Cl)cc2)n1
61 | 196 | CCCCNC(=O)Nc1nc2cc(CN3CCN(C(c4ccccc4)c4ccccc4)CC3)ccc2n1C
62 | 108 to 109 | CCCCCCCCCCCCCCOc1ccc(CNC(=O)NCc2ccccn2)cc1
63 | 117 to 122 | CCOC(=O)c1cnc(O)nc1NCc1ccc(OC)c(Cl)c1
64 | 163 to 164 | COC(=O)c1[nH]c2c(C)ccc(C)c2c1S(C)(=O)=O
65 | 149 | NC(=O)c1nn(-c2ccccc2)c2ccccc12
66 | 206 | N#Cc1c(N2CCN(C(=O)c3ccco3)CC2)c2cccnc2n(Cc2ccccc2)c1=O
67 | 131 to 133 | CCn1c2ccccc2c2cc(/C=C(\C#N)c3cccnc3)ccc21
68 | 118 to 122 | COC(=O)Nc1nc(OC)nc(OC)n1
69 | 118 to 119 | CC(=NOCCOc1ccc(CC2SC(=O)NC2=O)cc1)c1ccc(Cl)cc1 (stereo unspecified)
70 | 66.9 | C#CCOc1nsc(-c2ccccc2)n1
71 | 162 to 163 | Cc1cc(Cc2cnc(N)nc2N)cc(C)c1N(C)C
72 | 186 to 188 | CC1(C)N=C(S)N=C(N)N1
73 | 151 to 153 | COC(=O)c1cc(OC)c(C#N)c(OC)c1
74 | 145 to 146 | N#Cc1c(F)cccc1Nc1c(F)cccc1F
75 | 180 to 181 | CC(C)c1cccc(C(C)C)c1NC(=O)Nc1nnn(Cc2ccccc2)n1

Row | melting point [°C] | SMILES
76 | 205 | Cn1cncc1C(O)(c1ccc(Cl)cc1)c1ccc2nc(C=O)cc(-c3cccc(Cl)c3)c2c1 (stereo unspecified)
77 | 139 to 140 | CCCCN1C(=O)c2cnc(-c3ccccc3)nc2N(C(=O)CCl)c2ccccc21
78 | 115 | COc1cc2c(cc1CCNC(=O)Cc1ccc(OC)c(OC)c1)CCC2
79 | 98 to 99 | CCOCC(=NNc1ccc(C(F)(F)F)cc1)C(=O)NCc1ccc(Cl)nc1
80 | 172 to 173 | CC(=O)NC[C@H]1CN(c2cc(F)c(N3CCN(C(=O)COCc4ccccc4)CC3)c(F)c2)C(=O)O1
81 | 114 to 115 | O=CN1CCC(c2noc3cc(Cl)ccc23)CC1
82 | 153 to 155 | CCOc1ccccc1N(C[C@H]1CC[C@H](CN(C(=O)Nc2ccc(N(C)C)cc2)c2ccccc2OCC)CC1)C(=O)Nc1ccc(N(C)C)cc1
83 | 159 to 161 | COc1ccc(-c2cc(C(=O)O)c(=O)n(CC3CCCC3)n2)cc1F
84 | 175 to 177 | NC(=S)Nc1ccccc1-c1ccccc1F
85 | 200 | O=C1C2=C(SCCO2)C(=O)N1c1ccc2cccnc2n1
86 | 270 | O=c1[nH]ncc2c1c(O)nc1ccc(Cl)c(Cl)c12
87 | 132 to 133 | CCOC(CNC(=S)Nc1ccccn1)OCC
88 | 149 | Cn1ccnc1-c1ccccc1Nc1nc(Nc2ccc3c(c2)CCC(=O)CC3)ncc1Cl
89 | 225 to 228 | COc1ccccc1C(c1ccnc2ccccc12)C(C#N)(Cc1cccnc1)C(=O)OC(C)(C)C (stereo unspecified)
90 | 100 to 105 | C(=Cc1ccc(-c2ccc(OCCCN3CCCCC3)cc2)cc1)CN1CCCCC1
91 | 192 to 193 | Cc1nsc2nc3ccccc3n12
92 | 206 to 207 | N#Cc1cn(-c2cccnc2)nc1-c1ccc([N+](=O)[O-])o1
93 | 97 to 98 | CC(=O)N1CCO[C@@H]2c3ccccc3OCC[C@H]21 (relative stereo)
94 | 138 to 140 | CCC1(CC)c2cc(I)ccc2-c2ccc(C=O)cc21
95 | 143 to 145 | CSc1sc(-c2ccno2)c2c1C(=O)CC(C)(C)C2
96 | 108 to 109 | Cc1cccc2c1C(=O)C([N+](=O)[O-])C2=O (stereo unspecified)
97 | > 270 | N#CNC(=S)Nc1ccc(F)cc1
98 | 192 to 194 | CCOC1=NS(=O)(=O)N=C1N[C@@H]1c2cc(OC(F)(F)F)ccc2OC(C)(C)[C@H]1O
99 | 136 to 138 | COc1cc(I)c(Oc2cnc(N)nc2N)cc1I
100 | 120 to 122 | CSc1ccc2cc(O)ccc2c1

Row | SMILES | melting point [°C]
101 | COC(=O)COc1cccc2c(CCSC(c3ccc(Cl)cc3)c3ccc(Cl)cc3)coc12 | 68 to 69
102 | ClCCOc1ccc(CBr)cc1 | 64 to 66
103 | CC(C)(C)OC(=O)c1ncn2c1[C@@H]1CCCN1C(=O)c1c-2cccc1C(F)(F)F | 201 to 203
104 | CN1C(=O)[C@H](NC(=O)CCc2ccco2)N=C(c2ccccc2)c2ccccc21 | 115 to 118
105 | CN(C)C(=O)c1nc2n(n1)-c1ccc(Cl)cc1C(c1ccccc1)=NC2 | 135 to 137
106 | Nc1ccccc1C(=O)OCN1C(=O)c2ccccc2C1=O | 160 to 162
